Data from US11447489B2, “Dihydropyrimidinylthiazole for the treatment and prophylaxis of hepatitis B virus infection” (priority 2017, dated 2022).

Test system: HBsAg
Experiment: HepG2.2.15 cells primary screen assay: HBsAg assay (CLIA of secreted HBsAg)
Assay type: cell-based, HBV
Conditions: Hepatitis B virus
Description: Example 23: HepG2.2.15 Cells Primary Screen Assay
HepG2.2.15 cells (Acs et al. Proc Natl Acad Sci USA, 84, (1987), 4641-4), a constitutively HBV-expressing cell line were cultured in DMEM+Glutamax-I medium (Invitrogen, Carlsbad, Calif., USA), supplemented with 10% fetal bovine serum (Invitrogen) and G418 (Invitrogen) at a final concentration of 200 mg/L and maintained in 5% CO2 at 37° C.
HepG2.2.15 cells were seeded in duplicate into white, 96-well plates at 1.5×10^4 cells/well. The cells were treated with a three-fold serial dilution series of the compounds in DMSO. The final DMSO concentration in all wells was 1% and DMSO was used as no drug control.
The HBsAg chemiluminescence immunoassay (CLIA) kit (Autobio Diagnostics Co., Zhengzhou, China, Catalog number: CL0310-2) was used to measure the levels of secreted HBV antigens semi-quantitatively. For the detection 50 μL/well culture supernatant was used and HBsAg was quantified using HBsAg chemiluminescence immunoassay (CLIA) kit (Autobio Diagnostics Co., Zhengzhou, China, Catalog number: CL0310-2), 50 μL of the supernatant was transferred to the CLIA assay plate and 50 μL of enzyme conjugate reagent was added into each well. The plates were sealed and gently agitated for 1 hour at room temperature. The supernatant-enzyme-mixture was discarded and wells were washed 6 times with 300 μL of PBS. The residual liquid was removed by plating the CLIA plate […] on absorbent tissue paper. 25 μL of substrates A and B were added to each well. Luminance was measured using a luminometer (Mithras LB 940 Multimode Microplate Reader) after 10 minutes incubation. Dose-response curves were generated and the IC50 value was extrapolated by using the E-WorkBook Suite (ID Business Solutions Ltd., Guildford, UK). The IC50 was defined as the compound concentration (or conditioned media log dilution) at which HBsAg secretion was reduced by 50% compared to the no drug control.
The compounds of the present invention were tested for their capacity to inhibit HBsAg as described herein.

With `COC(=O)C1=C(CN2CCN3C(=O)N(CC(C)(C)CC(=O)NCCCCCCOc4cc5c(cc4OC)-c4cc(=O)c(C(=O)O)cn4C(C(C)(C)C)C5)C[C@@H]3C2)NC(c2nccs2)=N[C@H]1c1ccc(F)cc1Cl` (stereo partly drawn) [Example 16, 9-[6-[[4-[(8aS)-7-[[(4R)-4-(2-chloro-4-fluoro-phenyl)-5-methoxycarbonyl-2-thiazol-2-yl-1,4-dihydropyrimidin-6-yl]methyl]-3-oxo-5,6,8,8a-tetrahydro-1H-imidazo[1,5-a]pyrazin-2-yl]-3,3-dimethyl-butanoyl]amino]hexoxy]-6-tert-butyl-10-methoxy-2-oxo-6,7-dihydrobenzo[a]quinolizine-3-carboxylic Acid] the IC50 was 107 nM.
Work on `COC(=O)C1=C(CN2CCN3C(=O)N(CC(C)(C)CC(=O)NCCCCCCOc4cc(N5CCc6nc(-c7ncccn7)ncc6C5C)cc(F)c4F)C[C@@H]3C2)NC(c2nccs2)=N[C@H]1c1ccc(F)cc1Cl` (stereo partly drawn) [Example 17, methyl (4R)-6-[[(8aS)-2-[4-[6-[2,3-difluoro-5-[5-methyl-2-pyrimidin-2-yl-7,8-dihydro-5H-pyrido[4,3-d]pyrimidin-6-yl]phenoxy]hexylamino]-2,2-dimethyl-4-oxo-butyl]-3-oxo-5,6,8,8a-tetrahydro-1H-imidazo[1,5-a]pyrazin-7-yl]methyl]-4-(2-chloro-4-fluoro-phenyl)-2-thiazol-2-yl-1,4-dihydropyrimidine-5-carboxylate] yielded an IC50 of 1190 nM.
`COC(=O)C1=C(CN2CCOC[C@H]2C(=O)NCCCCCCOc2cc(N3CCc4nc(-c5ncccn5)ncc4C3C)cc(F)c2F)NC(c2nccs2)=N[C@H]1c1ccc(F)cc1Cl` (stereo partly drawn) [Example 18, methyl (4R)-4-(2-chloro-4-fluoro-phenyl)-6-[[(3S)-3-[6-[2,3-difluoro-5-(5-methyl-2-pyrimidin-2-yl-7,8-dihydro-5H-pyrido[4,3-d]pyrimidin-6-yl)phenoxy]hexylcarbamoyl]morpholin-4-yl]methyl]-2-thiazol-2-yl-1,4-dihydropyrimidine-5-carboxylate] showed an IC50 of 912 nM.
`COC(=O)C1=C(CN2CCOC[C@H]2CN(C)CCCCCCOc2cc(N3CCc4nc(-c5ncccn5)ncc4C3C)cc(F)c2F)NC(c2nccs2)=N[C@H]1c1ccc(F)cc1Cl` (stereo partly drawn) [Example 19, methyl (4R)-4-(2-chloro-4-fluoro-phenyl)-6-[[(3R)-3-[[6-[2,3-difluoro-5-(5-methyl-2-pyrimidin-2-yl-7,8-dihydro-5H-pyrido[4,3-d]pyrimidin-6-yl)phenoxy]hexyl-methyl-amino]methyl]morpholin-4-yl]methyl]-2-thiazol-2-yl-1,4-dihydropyrimidine-5-carboxylate] showed an IC50 of 724 nM.
For `COC(=O)C1=C(COc2cc(N3CCc4nc(-c5ncccn5)ncc4C3C)cc(F)c2F)NC(c2nccs2)=N[C@H]1c1ccc(F)cc1Cl` (stereo partly drawn) [Example 20, methyl (4R)-4-(2-chloro-4-fluoro-phenyl)-6-[[2,3-difluoro-5-(5-methyl-2-pyrimidin-2-yl-7,8-dihydro-5H-pyrido[4,3-d]pyrimidin-6-yl)phenoxy]methyl]-2-thiazol-2-yl-1,4-dihydropyrimidine-5-carboxylate], the IC50 was 824 nM.
`COC(=O)C1=C(CN2CCN(CC[C@@H](NCCCCCCOc3cc(N4CCc5nc(-c6ncccn6)ncc5C4C)cc(F)c3F)C(=O)O)CC2)NC(c2nccs2)=N[C@H]1c1ccc(F)cc1Cl` (stereo partly drawn) [Example 21, (2R)-4-[4-[[(4R)-4-(2-chloro-4-fluoro-phenyl)-5-methoxycarbonyl-2-thiazol-2-yl-1,4-dihydropyrimidin-6-yl]methyl]piperazin-1-yl]-2-[6-[2,3-difluoro-5-(5-methyl-2-pyrimidin-2-yl-7,8-dihydro-5H-pyrido[4,3-d]pyrimidin-6-yl)phenoxy]hexylamino]butanoic Acid] showed an IC50 of 582 nM.
Molecule `COC(=O)C1=C(CN2CCN(c3cc(F)cc(N4CCc5nc(-c6ncccn6)ncc5C4C)n3)C(C(=O)O)C2)NC(c2nccs2)=N[C@H]1c1ccc(F)cc1Cl` (stereo partly drawn) [Example 22, 4-[[(4R)-4-(2-chloro-4-fluoro-phenyl)-5-methoxycarbonyl-2-thiazol-2-yl-1,4-dihydropyrimidin-6-yl]methyl]-1-[4-fluoro-6-[5-methyl-2-pyrimidin-2-yl-7,8-dihydro-5H-pyrido[4,3-d]pyrimidin-6-yl]-2-pyridyl]piperazine-2-carboxylic Acid] has an IC50 of 618 nM.
